Earlier results as cited in publication PMC8952239, “Injectable Biodegradable Silica Depot: Two Months of Sustained Release of the Blood Glucose Lowering Peptide, Pramlintide” (Pharmaceutics, 2022).
Values belong to the molecule of their own block, whether it stands above or below them. Bridge positions count the residues as written; N and C are the ends. Ends that are not written are not given here.

How the values were obtained:
[1] = weak acid; no reference given
Description: In this communication, we highlight a sustained delivery strategy for in vivo delivery of the synthetic peptide analogue of amylin, pramlintide acetate. As mentioned earlier, amylin is the endogenous hormone co-secreted with insulin by the pancreas for glucose metabolism in vivo. […] Such effects can be moderated either by decreasing the single dosing of preprandial ins ...

lean rats = tested on: lean rats
Description: (Figure 6). […] The findings for bodyweight loss mirror very well previously published data in lean rats. Roth et al. show body weight returning to baseline levels 8 days after the start of amylin treatment in an experiment assessing the effect ...

rats = tested on: rats
Description: In an earlier preclinical study of pramlintide in rats, the peak plasma concentration of pramlintide at 50% maximally effective gastric inhibitory dose was reported to be 15 pM. The lower dose (5 mg/kg) formulation in the present study seems to achieve this concentration level by the end of the study.

- pKa [1]: 9.84
Molecule: O[Si](O)(O)O [silicic acid]

Molecule: amylin: endogenous hormone co-secreted with insulin by the pancreas (KCNTATCATQRLANFLVHSSNNFGAILSSTNVGSNTY; Islet amyloid polypeptide; UniProt P10997 34-70, looked up)
- time after start of treatment at which body weight returned to baseline levels (lean rats; continuous subcutaneous amylin infusion over 24 days): 8 days
- period with significant effects on food intake (lean rats; lean animals, minipump over 14 days): 6 days

Molecule: pramlintide acetate (KCNTATCATQRLANFLVHSSNNFGPILPPTNVGSNTY-NH2; disulfide 2-7 (inferred); also: acetate salt; UniProt P10997 34-70, looked up, variant A25P S28P S29P) [synthetic analogue of amylin, adjunct to preprandial insulin therapy]
- peak plasma concentration at 50% maximally effective gastric inhibitory dose (rats): 15 pM
